# Assay results: patent US20050209237A1, “Method for decreasing capillary permeability in the retina” (priority 2002, published 2005)
# Tested on: BRB breakdown in mice exposed to vascular endothelial growth factor (VEGF)
# Test: BRB breakdown quantitated with intraperitoneal [3H]-mannitol tracer in mice after intravitreal VEGF
# Type: in vivo, C57B/J6 mice
# Conditions: gavage 50 mg/kg for three days prior to intravitreal VEGF 10^-6 M, [3H]-mannitol tracer at 6 hours
# Excerpt: Intraperitoneally administered radiolabeled tracer can be used to quantitate BRB breakdown in mice exposed to vascular endothelial growth factor (VEGF). This technique is particularly advantageous with neonatal mice because of the technical difficulty involved with intravascular injections. Also, the comparison of retinas from injected and control eyes to tissues without a blood-tissue barrier corrects for variations in the amount of isotope injected or absorbed into the circulation.
# Ten six- to seven-week-old C57B/J6 mice (Jackson Labs, Bar Harbor, Me.) are weighed to determine the proper dosage of anesthesia and tracer required. Mice are anesthetized with a solution containing 25 mg/kg ketamine (Ketaset; Fort Dodge Animal Health, Fort Dodge, Iowa) and 4 mg/kg rompun (Tranquived; Vedco, St. Joseph, Mo.) diluted 1:10 in saline prior to injection. […]
# One ml NCSII (Amersham, Chicago, Ill.) solubilizing solution is added to each vial and the vials are incubated overnight in a 50° C. water bath. […] The specimens are counted on a Wallace 1409 Liquid Scintillation Counter (Gaithersburg, :Md.).
# The counts per mg tissue are determined for treated (with 4-pyridylmethyl-phthalazine derivative) and untreated retina, lung, and kidney. Ratios of these values for treated or untreated retina/lung or kidney and for lung/kidney are calculated. […]
substance,measurement,setting,value
4-pyridylmethyl-phthalazine,retina/kidney ratio,"VEGF/vehicle-treated 0.6806±0.1060, Student-t value 0.0201",0.3881±0.0436
same,retina/lung ratio (cpm per mg of retina/cpm per mg of lung),"VEGF/vehicle-treated 0.8785±0.0946, Student-t value 0.0467",0.6326±0.0656
